Source: US8471005B2 (Cephalon, Inc., priority 2008, dated 2013)

Assays:
[1] = molecular target: T1, ALK (Homo sapiens, UniProt Q9UM73); test: ALK Kinase Assay (ELISA/TRF, PLC-γ substrate); format: biochemical; conditions: ALK Kinase Inhibition; read-out: ALK Potency
T1 construct: host or cells: baculovirus expression system
Summary of the method: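 First, plates are coated with substrate (phospholipase C-γ, 10 μg/mL, TBS). Next, 30 ng/ml ALK initiates phosphorylation for 15 min at 37° C. Then Eu-N1 PT66 antibody is added for detection, and a nonlinear dose-response fit of percent inhibition yields IC50.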

[2] = molecular target: T2, JAK2 (Homo sapiens, UniProt O60674); test: Recombinant Human JAK2 Kinase Assay (TRF); format: biochemical; conditions: JAK2 Kinase Inhibition; read-out: JAK2 Potency
T2 construct: host or cells: baculovirus expression system
T2 sequence (O60674 whole entry): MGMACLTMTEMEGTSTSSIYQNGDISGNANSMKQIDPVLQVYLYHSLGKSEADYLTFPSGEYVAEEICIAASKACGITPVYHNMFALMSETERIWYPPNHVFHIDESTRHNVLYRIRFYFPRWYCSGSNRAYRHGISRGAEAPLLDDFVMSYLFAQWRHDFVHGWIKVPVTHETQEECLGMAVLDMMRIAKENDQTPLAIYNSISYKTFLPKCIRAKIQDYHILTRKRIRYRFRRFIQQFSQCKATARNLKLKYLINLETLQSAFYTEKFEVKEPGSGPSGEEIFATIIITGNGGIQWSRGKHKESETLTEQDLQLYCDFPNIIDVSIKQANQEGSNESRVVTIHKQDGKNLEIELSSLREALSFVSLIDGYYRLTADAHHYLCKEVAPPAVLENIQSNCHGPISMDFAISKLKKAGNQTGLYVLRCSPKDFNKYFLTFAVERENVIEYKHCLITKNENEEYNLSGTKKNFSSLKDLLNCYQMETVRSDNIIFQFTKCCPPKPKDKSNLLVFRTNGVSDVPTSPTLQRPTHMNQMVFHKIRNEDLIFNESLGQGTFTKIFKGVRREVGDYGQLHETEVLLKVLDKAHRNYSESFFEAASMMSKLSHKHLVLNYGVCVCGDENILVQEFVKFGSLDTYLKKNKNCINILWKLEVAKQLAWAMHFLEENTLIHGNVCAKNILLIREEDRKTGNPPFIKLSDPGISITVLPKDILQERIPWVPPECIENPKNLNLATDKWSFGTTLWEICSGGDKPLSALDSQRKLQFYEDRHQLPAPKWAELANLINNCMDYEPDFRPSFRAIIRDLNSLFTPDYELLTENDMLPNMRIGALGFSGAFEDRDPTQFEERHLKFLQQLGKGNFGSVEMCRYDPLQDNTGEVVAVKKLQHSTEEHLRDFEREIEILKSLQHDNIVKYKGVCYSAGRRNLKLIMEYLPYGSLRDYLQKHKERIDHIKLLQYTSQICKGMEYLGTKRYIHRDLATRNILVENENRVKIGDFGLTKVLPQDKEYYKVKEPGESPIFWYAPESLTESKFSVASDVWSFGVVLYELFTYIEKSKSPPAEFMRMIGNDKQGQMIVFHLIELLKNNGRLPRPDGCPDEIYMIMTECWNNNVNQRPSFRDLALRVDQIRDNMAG
Summary of the method: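 Kinase activity of baculovirus-expressed JAK2 is followed on a surface-immobilised biotinylated peptide, with the reaction run for 20 min at room temperature in buffer containing 0.2 μM ATP and manganese. Phosphorylation is read with Eu-N1 PY100 antibody.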

T1 sequence (Q9UM73 19-1620): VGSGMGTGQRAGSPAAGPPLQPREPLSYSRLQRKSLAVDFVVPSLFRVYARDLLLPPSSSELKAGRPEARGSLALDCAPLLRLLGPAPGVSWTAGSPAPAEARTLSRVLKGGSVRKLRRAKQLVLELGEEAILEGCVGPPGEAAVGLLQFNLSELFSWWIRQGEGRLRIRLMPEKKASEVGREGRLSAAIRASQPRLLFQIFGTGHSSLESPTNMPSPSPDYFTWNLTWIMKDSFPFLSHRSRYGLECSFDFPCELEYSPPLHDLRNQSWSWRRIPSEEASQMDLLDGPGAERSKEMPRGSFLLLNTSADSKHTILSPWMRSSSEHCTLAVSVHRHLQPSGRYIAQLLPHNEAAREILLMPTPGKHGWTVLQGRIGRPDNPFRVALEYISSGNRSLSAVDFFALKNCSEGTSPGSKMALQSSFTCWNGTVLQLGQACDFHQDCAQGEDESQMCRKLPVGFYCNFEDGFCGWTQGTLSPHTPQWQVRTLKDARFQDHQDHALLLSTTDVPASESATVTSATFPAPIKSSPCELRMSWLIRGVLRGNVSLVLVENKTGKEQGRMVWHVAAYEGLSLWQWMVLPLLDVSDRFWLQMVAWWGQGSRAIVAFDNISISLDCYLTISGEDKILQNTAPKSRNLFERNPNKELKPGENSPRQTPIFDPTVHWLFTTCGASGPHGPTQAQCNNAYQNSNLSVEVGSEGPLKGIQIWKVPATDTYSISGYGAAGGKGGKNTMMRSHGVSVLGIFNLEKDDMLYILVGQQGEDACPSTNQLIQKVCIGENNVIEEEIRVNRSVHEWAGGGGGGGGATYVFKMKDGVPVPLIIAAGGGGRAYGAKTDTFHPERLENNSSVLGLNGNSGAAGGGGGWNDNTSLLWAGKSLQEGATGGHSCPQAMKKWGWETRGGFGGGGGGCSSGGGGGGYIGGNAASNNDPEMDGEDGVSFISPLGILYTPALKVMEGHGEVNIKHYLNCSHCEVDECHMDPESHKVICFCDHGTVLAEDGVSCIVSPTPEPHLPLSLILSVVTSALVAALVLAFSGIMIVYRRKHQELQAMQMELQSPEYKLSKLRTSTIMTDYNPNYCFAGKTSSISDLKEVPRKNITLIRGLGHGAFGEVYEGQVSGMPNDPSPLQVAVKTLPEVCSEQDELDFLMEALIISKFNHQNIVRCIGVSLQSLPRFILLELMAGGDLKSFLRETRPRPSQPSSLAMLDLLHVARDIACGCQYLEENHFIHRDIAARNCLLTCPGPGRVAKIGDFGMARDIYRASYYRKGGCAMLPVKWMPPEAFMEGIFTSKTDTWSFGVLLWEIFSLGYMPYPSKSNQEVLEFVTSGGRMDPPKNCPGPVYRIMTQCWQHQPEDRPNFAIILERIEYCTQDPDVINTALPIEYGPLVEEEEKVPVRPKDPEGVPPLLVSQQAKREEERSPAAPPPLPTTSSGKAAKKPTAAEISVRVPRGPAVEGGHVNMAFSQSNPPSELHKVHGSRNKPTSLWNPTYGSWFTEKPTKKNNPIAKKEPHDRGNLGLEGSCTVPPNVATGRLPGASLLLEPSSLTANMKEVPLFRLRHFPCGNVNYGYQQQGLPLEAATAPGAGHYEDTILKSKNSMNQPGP

| Compound | IC50 [1] [nM] | IC50 [2] [nM] |
| --- | --- | --- |
| CN1CCN(C(=O)c2cccc(Nc3ncc4ccc(-c5ccc(S(C)(=O)=O)cc5)n4n3)c2)CC1 [Example 342, {3-[7-(4-Methanesulfonyl-phenyl)-pyrrolo[2,1-f][1,2,4]triazin-2-ylamino]-phenyl}-(4-methyl-piperazin-1-yl)-methanone] | 1000 to 10000 | < 100 |
| COc1ccccc1-c1ccc2cnc(Nc3ccc(N4CCCC(N5CCOCC5)C4)cc3)nn12 (stereo not shown) [Example 343, [7-(2-Methoxy-phenyl)-pyrrolo[2,1-f][1,2,4]triazin-2-yl]-[4-(3-morpholin-4-yl-piperidin-1-yl)-phenyl]-amine] | < 100 | < 100 |
| COc1ccc(Cl)cc1-c1ccc2cnc(Nc3ccc(N4CCCC(N5CCOCC5)C4)cc3)nn12 (stereo not shown) [Example 344, [7-(5-Chloro-2-methoxy-phenyl)-pyrrolo[2,1-f][1,2,4]triazin-2-yl]-[4-(3-morpholin-4-yl-piperidin-1-yl)-phenyl]-amine] | < 100 | < 100 |
| Clc1cccc(-c2ccc3cnc(Nc4ccc(N5CCCC(N6CCOCC6)C5)cc4)nn23)c1 (stereo not shown) [Example 345, [7-(3-Chloro-phenyl)-pyrrolo[2,1-f][1,2,4]triazin-2-yl]-[4-(3-morpholin-4-yl-piperidin-1-yl)-phenyl]-amine] | 100 to 1000 | < 100 |
| CS(=O)(=O)c1ccc(-c2ccc3cnc(Nc4ccc(N5CCCC(N6CCOCC6)C5)cc4)nn23)cc1 (stereo not shown) [Example 346, [7-(4-Methanesulfonyl-phenyl)-pyrrolo[2,1-f][1,2,4]triazin-2-yl]-[4-(3-morpholin-4-yl-piperidin-1-yl)-phenyl]-amine] | 100 to 1000 | < 100 |
| c1cncc(-c2ccc3cnc(Nc4ccc(N5CCCC(N6CCOCC6)C5)cc4)nn23)c1 (stereo not shown) [Example 347, [4-(3-Morpholin-4-yl-piperidin-1-yl)-phenyl]-(7-pyridin-3-yl-pyrrolo[2,1-f][1,2,4]triazin-2-yl)-amine] | 100 to 1000 | < 100 |
| COc1ccccc1-c1ccc2cnc(Nc3ccc(N4CCCC(N5CCN(C)CC5)C4)cc3)nn12 (stereo not shown) [Example 348, [7-(2-Methoxy-phenyl)-pyrrolo[2,1-f][1,2,4]triazin-2-yl]-{4-[3-(4-methyl-piperazin-1-yl)-piperidin-1-yl]-phenyl}-amine] | < 100 | < 100 |
| COc1ccc(Cl)cc1-c1ccc2cnc(Nc3ccc(N4CCCC(N5CCN(C)CC5)C4)cc3)nn12 (stereo not shown) [Example 349, [7-(5-Chloro-2-methoxy-phenyl)-pyrrolo[2,1-f][1,2,4]triazin-2-yl]-{4-[3-(4-methyl-piperazin-1-yl)-piperidin-1-yl]-phenyl}-amine] | < 100 | < 100 |
| CN1CCN(C2CCCN(c3ccc(Nc4ncc5ccc(-c6cccc(Cl)c6)n5n4)cc3)C2)CC1 (stereo not shown) [Example 350, [7-(3-Chloro-phenyl)-pyrrolo[2,1-f][1,2,4]triazin-2-yl]-{4-[3-(4-methyl-piperazin-1-yl)-piperidin-1-yl]-phenyl}-amine] | < 100 | < 100 |
| CN1CCN(C2CCCN(c3ccc(Nc4ncc5ccc(-c6ccc(S(C)(=O)=O)cc6)n5n4)cc3)C2)CC1 (stereo not shown) [Example 351, [7-(4-Methanesulfonyl-phenyl)-pyrrolo[2,1-f][1,2,4]triazin-2-yl]-{4-[3-(4-methyl-piperazin-1-yl)-piperidin-1-yl]-phenyl}-amine] | 100 to 1000 | < 100 |
| CN1CCN(C2CCCN(c3ccc(Nc4ncc5ccc(-c6cccnc6)n5n4)cc3)C2)CC1 (stereo not shown) [Example 352, {4-[3-(4-Methyl-piperazin-1-yl)-piperidin-1-yl]-phenyl}-(7-pyridin-3-yl-pyrrolo[2,1-f][1,2,4]triazin-2-yl)-amine] | 100 to 1000 | < 100 |
| COc1ccccc1-c1ccc2cnc(Nc3ccc(CN4CCN(C)CC4)cc3)nn12 [Example 353, [7-(2-Methoxy-phenyl)-pyrrolo[2,1-f][1,2,4]triazin-2-yl]-[4-(4-methyl-piperazin-1-ylmethyl)-phenyl]-amine] | < 100 | < 100 |
| COc1ccc(Cl)cc1-c1ccc2cnc(Nc3ccc(CN4CCN(C)CC4)cc3)nn12 [Example 354, [7-(5-Chloro-2-methoxy-phenyl)-pyrrolo[2,1-f][1,2,4]triazin-2-yl]-[4-(4-methyl-piperazin-1-ylmethyl)-phenyl]-amine] | < 100 | < 100 |
| CN1CCN(Cc2ccc(Nc3ncc4ccc(-c5ccc(S(C)(=O)=O)cc5)n4n3)cc2)CC1 [Example 355, [7-(4-Methanesulfonyl-phenyl)-pyrrolo[2,1-f][1,2,4]triazin-2-yl]-[4-(4-methyl-piperazin-1-ylmethyl)-phenyl]-amine] | 1000 to 10000 | < 100 |
| O=S(=O)(NC1CC1)c1cccc(-c2ccc3cnc(Nc4ccc(N5CCOCC5)cc4)nn23)c1 [Example 356, N-Cyclopropyl-3-[2-(4-morpholin-4-yl-phenylamino)-pyrrolo[2,1-f][1,2,4]triazin-7-yl]-benzenesulfonamide] | 100 to 1000 | < 100 |
| CNS(=O)(=O)c1cccc(-c2ccc3cnc(Nc4ccc(N5CCOCC5)cc4)nn23)c1 [Example 357, N-Methyl-3-[2-(4-morpholin-4-yl-phenylamino)-pyrrolo[2,1-f][1,2,4]triazin-7-yl]-benzenesulfonamide] | 100 to 1000 | < 100 |
| O=S(=O)(c1cccc(-c2ccc3cnc(Nc4ccc(N5CCOCC5)cc4)nn23)c1)N1CCCC1 [Example 358, (4-Morpholin-4-yl-phenyl)-{7-[3-(pyrrolidine-1-sulfonyl)-phenyl]-pyrrolo[2,1-f][1,2,4]triazin-2-yl}-amine] | 100 to 1000 | < 100 |
| COc1ccccc1-c1ccc2cnc(Nc3ccc4c(c3)CC(=O)N4C)nn12 [Example 359, 5-[7-(2-Methoxy-phenyl)-pyrrolo[2,1-f][1,2,4]triazin-2-ylamino]-1-methyl-1,3-dihydro-indol-2-one] | 100 to 1000 | < 100 |
| COc1ccc(Cl)cc1-c1ccc2cnc(Nc3ccc4c(c3)CC(=O)N4C)nn12 [Example 360, 5-[7-(5-Chloro-2-methoxy-phenyl)-pyrrolo[2,1-f][1,2,4]triazin-2-ylamino]-1-methyl-1,3-dihydro-indol-2-one] | 100 to 1000 | < 100 |
| CN1C(=O)Cc2cc(Nc3ncc4ccc(-c5cccc(NS(C)(=O)=O)c5)n4n3)ccc21 [Example 361, N-{3-[2-(1-Methyl-2-oxo-2,3-dihydro-1H-indol-5-ylamino)-pyrrolo[2,1-f][1,2,4]triazin-7-yl]-phenyl}-methanesulfonamide] | 100 to 1000 | < 100 |
| c1ccc(NCc2ccc3cnc(Nc4ccc(N5CCOCC5)cc4)nn23)cc1 [Example 362, (4-Morpholin-4-yl-phenyl)-(7-phenylaminomethyl-pyrrolo[2,1-f][1,2,4]triazin-2-yl)-amine] | 1000 to 10000 | < 100 |
| CN1CCN(c2ccc(Nc3ncc4ccc(CNc5ccccc5)n4n3)cc2)CC1 [Example 363, [4-(4-Methyl-piperazin-1-yl)-phenyl]-(7-phenylaminomethyl-pyrrolo[2,1-f][1,2,4]triazin-2-yl)-amine] | 1000 to 10000 | < 100 |
| COc1ccccc1NCc1ccc2cnc(Nc3ccc(N4CCOCC4)cc3)nn12 [Example 364, {7-[(2-Methoxy-phenylamino)-methyl]-pyrrolo[2,1-f][1,2,4]triazin-2-yl}-(4-morpholin-4-yl-phenyl)-amine] | > 10000 | < 100 |
